Values joined by “and” are separate entries in the source; they are usually repeats but may differ in a detail not shown here. Equal values may be shown once.
Columns and labels:
[1] = Liver microsome metabolic stability (murine); details: Murine liver microsomes, 1 µM compound, 1 mg/mL, NADPH, 37 °C
Procedure: The metabolic stability of the compounds in in vitro liver microsomes was evaluated. The procedures and steps were as follows: At 37 °C, 1 µM of the compounds was incubated in 1 mg/mL liver microsomes. The reaction system was a 0.1 M potassium phosphate buffer (pH 7.4) containing 3 mmol/L MgCl2 and 1 mmol/L NADPH. At the beginning of the reaction, the small molecules and the liver microsomes were pre-incubated at 37 °C for 10 min, and subsequently a cofactor NADPH was added to initiate the metabolic reaction. The reaction was quenched at 0 min, 5 min, 10 min, 20 min, 30 min, and 60 min using three volumes of ice-cold methanol containing an internal standard (200 nM labetalol). After incubation at room temperature for 10 min, the samples were centrifuged at 4000 rpm at 4 °C for 20 min, and the supernatants were collected, diluted with chromatography-grade purified water in a 1:1 ratio, and then subjected to quantitative analysis. […] After a 6-minute chromatographic separation on a C18 column (50 × 2.1 mm; 2.6 µm) under a gradient mobile phase of 0.1% formic acid in water, the peaks corresponding to specified ionic signals were detected. […]
(§1) The metabolic half-life (T1/2) and the metabolic clearance rate (CLint(mic)) (µL/min/mg) were calculated using a first-order kinetic equation.

H22-luc = H22-luc orthotopic model, 3 mpk, IG, QW × 3, BLI 21 days post-dose, P < 0.0001
Procedure: The cells were placed in an incubator at 37 °C with 5% CO2 and passaged every 1 to 2 days depending on the cell density.
The cell concentration (H22-luc, 2.0E8/mL) was adjusted, and the cells were mixed well with Matrigel at a ratio of 1:1. The mixture was placed on ice for subsequent injection experiments, and was mixed thoroughly by shaking with Vortex before use.
• (1) The mice were weighed before surgery and anesthetized by intraperitoneal injection of avertin at 0.15 mL/10 g body weight. […] The needle was inserted into the liver at a 30-degree angle relative to the liver surface. After the needle was inserted, the needle was made parallel to the tabletop and advanced in parallel for about 3 mm. 10 µL of H22-luc cell suspension was slowly injected, and a rapid whitening (white plaque) or turbid translucent vacuolation over most of the liver lobe in the injection area was observed. • (5) After injection, a cotton swab was used to apply slight pressure at the needle insertion site while the needle was slowly withdrawn. The cotton swab was removed until no bleeding was observed. • (6) The liver lobe was gently pushed back into the abdominal cavity, and the muscle layer and skin were sutured.
The experimental data were analyzed using Graphpad Prism 8. The experimental data were expressed as mean ± SD.

hERG potassium channel = hERG potassium channel (Homo sapiens, UniProt Q12809); assay: hERG whole-cell patch-clamp; type: cell-based; details: whole-cell patch-clamp; read-out: hERG (IC50)
Sequence of hERG potassium channel (Q12809 whole entry): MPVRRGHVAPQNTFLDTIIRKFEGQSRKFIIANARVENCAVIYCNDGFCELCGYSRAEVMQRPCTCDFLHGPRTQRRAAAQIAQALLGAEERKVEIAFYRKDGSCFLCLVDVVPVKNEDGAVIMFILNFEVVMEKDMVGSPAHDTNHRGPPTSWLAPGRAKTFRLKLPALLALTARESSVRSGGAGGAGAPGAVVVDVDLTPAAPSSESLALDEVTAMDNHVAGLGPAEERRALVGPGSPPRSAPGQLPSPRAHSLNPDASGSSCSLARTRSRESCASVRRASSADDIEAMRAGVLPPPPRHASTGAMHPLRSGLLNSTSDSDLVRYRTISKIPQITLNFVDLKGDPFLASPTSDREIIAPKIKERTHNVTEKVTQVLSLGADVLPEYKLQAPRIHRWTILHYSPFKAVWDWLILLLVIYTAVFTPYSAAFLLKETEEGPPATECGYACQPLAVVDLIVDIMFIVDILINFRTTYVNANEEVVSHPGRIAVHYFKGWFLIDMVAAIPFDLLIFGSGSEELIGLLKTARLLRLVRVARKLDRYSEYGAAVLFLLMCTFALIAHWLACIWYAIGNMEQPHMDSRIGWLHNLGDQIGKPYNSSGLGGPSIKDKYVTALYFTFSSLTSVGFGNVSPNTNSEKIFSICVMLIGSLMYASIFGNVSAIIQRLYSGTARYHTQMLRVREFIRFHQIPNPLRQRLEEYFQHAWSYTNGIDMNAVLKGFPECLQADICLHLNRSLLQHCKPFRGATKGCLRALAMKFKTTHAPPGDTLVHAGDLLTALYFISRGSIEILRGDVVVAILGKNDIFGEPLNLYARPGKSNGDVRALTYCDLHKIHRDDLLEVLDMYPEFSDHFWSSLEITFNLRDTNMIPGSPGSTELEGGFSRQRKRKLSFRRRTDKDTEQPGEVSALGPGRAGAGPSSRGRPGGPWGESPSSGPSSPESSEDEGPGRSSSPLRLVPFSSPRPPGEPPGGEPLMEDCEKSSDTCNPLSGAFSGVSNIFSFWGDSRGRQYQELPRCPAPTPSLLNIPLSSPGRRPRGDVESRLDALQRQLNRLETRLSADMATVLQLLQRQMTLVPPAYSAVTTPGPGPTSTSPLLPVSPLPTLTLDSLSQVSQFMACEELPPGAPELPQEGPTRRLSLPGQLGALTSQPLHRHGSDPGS
Description: The rapidly activated potassium channel encoded by human ether-a-go-go-related gene (hERG) is an important ion channel involved in the formation of cardiac action potential phase 3 repolarization. Drug-induced blockade of hERG channels can lead to delayed cardiac repolarization, manifested as QT interval prolongation on the electrocardiogram, known as long QT syndrome. Drug-induced delayed ventricular repolarization may, under certain circumstances, trigger fatal arrhythmias-torsade de pointes-type ventricular tachycardia. In this study, the whole-cell patch-clamp technique (the standard method for hERG safety assessment) was employed to evaluate the inhibitory effects of the small-molecule compounds on the hERG potassium channel and to assess the risk of ventricular repolarization toxicity.

[2] = type: in vivo, C57BL/6J wild-type female mice
Procedure: C57BL/6J wild-type female mice (6 weeks old) were randomly grouped. After administration at different doses, whole blood and liver tissues of the mice were separately collected at 1 h, 2 h, and 4 h for detection of a plurality of parameters to evaluate the effect of the drugs on the liver.
Liver tissues and blood were collected at 1 h, 2 h, and 4 h after single dosing.
The supernatant was collected and stored (-20 °C); • (3) IFN-α, IP-10, IL-6, and TNF-α were detected using an ELISA kit. • (C) Remaining liver tissue-HE staining and pathological evaluation. • (D) 1/2 blood (whole blood)-liver function parameter detection: AST (aspartate aminotransferase), ALT (alanine aminotransferase/glutamate pyruvate transaminase), ALP (alkaline phosphatase), ALB (albumin), and GGT (γ-glutamyl transferase). • (E) 1/2 blood-serum preparation-reserve for ELISA.

[3] = Liver microsome metabolic stability (human); details: Human liver microsomes, 1 µM compound, 1 mg/mL, NADPH, 37 °C
Procedure: The metabolic stability of the compounds in in vitro liver microsomes was evaluated. The procedures and steps were as follows: At 37 °C, 1 µM of the compounds was incubated in 1 mg/mL liver microsomes. The reaction system was a 0.1 M potassium phosphate buffer (pH 7.4) containing 3 mmol/L MgCl2 and 1 mmol/L NADPH. At the beginning of the reaction, the small molecules and the liver microsomes were pre-incubated at 37 °C for 10 min, and subsequently a cofactor NADPH was added to initiate the metabolic reaction. The reaction was quenched at 0 min, 5 min, 10 min, 20 min, 30 min, and 60 min using three volumes of ice-cold methanol containing an internal standard (200 nM labetalol). After incubation at room temperature for 10 min, the samples were centrifuged at 4000 rpm at 4 °C for 20 min, and the supernatants were collected, diluted with chromatography-grade purified water in a 1:1 ratio, and then subjected to quantitative analysis. […] After a 6-minute chromatographic separation on a C18 column (50 × 2.1 mm; 2.6 µm) under a gradient mobile phase of 0.1% formic acid in water, the peaks corresponding to specified ionic signals were detected. […] The detailed operation process was as follows: • 1) The compound working solution was added to all 96-well reaction plates (T0, T5, T10, T20, T30, and T60) at 10 µL/well, except the blank wells. • 2) The microsomal solution was added to all the reaction wells (T0, T5, T10, T20, T30, T60, and blank wells) at 80 µL/well. • 3) The plates were pre-incubated at 37 °C for 10 min. • 4) After pre-incubation, NADPH was added to each reaction plate at 10 µL/well to initiate the reaction. • 5) At the set end time point, a 4 °C methanol solution (containing an internal standard: 200 nM labetalol) was added to each reaction plate at 300 µL/well to quench the reaction. • 6) Each plate was sealed and shaken for 10 min. • 7) The mixture was shaken well and centrifuged at 4000 rpm at 4 °C for 20 min. • 8) 300 µL of the supernatant was collected, and HPLC-grade water was added at 300 µL/well. The mixture was well mixed and then subjected to LC-MS analysis.
as §1

[4] = Liver tissue distribution after single intragastric administration; details: 10 mg/kg single intragastric, ICR mice; for AUC(0-t) at 24 h: mouse, in vivo, po, 10 mg/kg, area under curve at 24 h post-dose
Procedure: The specific regimen was as follows: Before administration, the state of the formulation for administration was inspected, and the homogeneity of the formulation was ensured by vortexing, stirring, or shaking. The theoretical dose for each mouse was calculated according to the following formula. The actual dose for each ICR mouse and the collection time for plasma and tissue samples were required to be recorded in detail in corresponding tables. Theoretical administration volume (mL) = ((Dose(mg⋅kg^−1))/(Concentration of test solution (mg⋅((mL))^−1))) × Animal body weight (kg) [formula]
Plasma sample collection: At each designated time point, about 100 µL of blood was collected from the orbit, and the collected whole blood was placed in an EDTA-K2 anticoagulation tube, inverted several times to mix thoroughly, stored on wet ice, and centrifuged (at 1500 g to 1600 g) for 10 min within 30 min to separate the plasma. The resulting plasma sample was stored at -40 °C to -20 °C for biological sample analysis.
The specific procedures for liver tissue collection were as follows: Liver tissues were collected immediately after whole blood collection. The liver tissues were collected, washed with ice-cold normal saline, dehydrated, weighed, and homogenized in 20% methanol-water at a ratio of 1:5 (w/v). The collection time of tissues and the weight of homogenized tissues were required to be recorded in detail in corresponding tables.
The plasma and various tissue homogenates were stored in a refrigerator at -40 °C to -20 °C for sample analysis. After the experiment was completed, the mice were euthanized by carbon dioxide asphyxiation or cervical dislocation. After the analysis was completed, the samples were returned to the biological sample room, and transferred to an environment at -40 °C to -20 °C for storage according to SOP-SM-001.
The corresponding pharmacokinetic parameters of plasma and liver tissues were calculated using a non-compartmental model in Phoenix WinNonlin 8.0 or later versions, and the area under curve AUC0-t (AUC0-t, the area under the concentration-time curve at 24 h post-dose) was calculated. The liver/plasma drug distribution ratio (RL/P) was then calculated.

Hep3B-luc = Hep3B-luc liver orthotopic xenograft mouse model; details: Hep3B-luc liver orthotopic tumor model, 3 mg/kg
[5] = Solubility in phosphate buffer at pH 7.4
in vivo = assay: in vivo
Procedure: C57BL/6 mice, 8 weeks old, female/male, 27, supplier: SPF (Beijing) Biotechnology Co., Ltd.
The body weight of the animals was measured and recorded daily.
All groups were subjected to clinical observations before administration and 1 to 2 h after administration, and additional observations were performed if necessary. Deaths and mortality were checked twice daily. The observations should include, but are not limited to, the following: fur condition, activity, mental status, vomiting, diarrhea, and abnormal secretions around the eyes. All animals should be observed on the day of necropsy, and any abnormal findings should be recorded.
The rectal temperature of all animals was measured and recorded at 0 h before administration and at 2 h, 4 h, 8 h and 24 h after administration.
The experiment was terminated on day 7 after administration. A gross necropsy was performed to examine abdominal and thoracic organs for lesions, and the spleen and liver were collected for weighing.

[6] = C57BL/6 mice, single intragastric administration

COCCNc1nc(N)nc2ccc(Cc3ccc(CN4CCOCC4)cc3)nc12 [Compound II]
k [1]: 0.0460 L/min | TGI (H22-luc): 83.4% | IC50 (hERG potassium channel): 4.3 µM and > 10 µM | maximum body weight loss rate (MC38-luc; MC38-luc liver metastasis model, compound II 3 mpk IG QW × 3, PD-1 10 mpk IP BIW × 2): 3.9% | TGI (MC38-luc; MC38-luc liver metastasis model, compound II 3 mpk IG QW × 3, PD-1 10 mpk IP BIW × 2, 17 days post-dose): 63.3% | CD8+ T cells in peripheral lymph nodes (MC38-luc; flow cytometry, compared with vehicle group): no significant difference | Kuffer cells in the liver tissue (MC38-luc; flow cytometry, compared with vehicle group and PD-1 antibody group): significantly induced an increase | AST levels ([2]; all administration groups, no statistically significant differences): exceeded the normal reference range | ALP levels ([2]; all dose groups): within the normal reference value range | GGT levels ([2]; all dose groups): significantly lower than that of the control group | ALB level ([2]; at 2 h and 4 h): significantly lower than that of the control group | ALT elevation by clinical adverse reaction grading ([2]; single administration, Grade 1 AE = ALT exceeding three times the normal value): did not result in ALT elevation to grade 1 AE | ALT ([2]; whole blood, 3/10/20 mpk i.g. single dose, 1 h, 2 h, 4 h): increased in all groups | k [3]: 0.0197 L/min | AUC0-t ratio (liver/plasma) [4]: 114 | liver/plasma drug distribution ratio [4]: 114 fold | Drug concentration ratio (liver/plasma) ([4]; 0.25h): 610 | Mean drug concentration (liver) ([4]; 0.25h): 30980 ng/g | Mean drug concentration (plasma) ([4]; 0.25h): 50.8 ng/mL | Drug concentration ratio (liver/plasma) ([4]; 1 h): 134 | Mean drug concentration (liver) ([4]; 1 h): 8780 ng/g | Mean drug concentration (plasma) ([4]; 1 h): 65.6 ng/mL | Drug concentration ratio (liver/plasma) ([4]; 4h): 71.3 | Mean drug concentration (liver) ([4]; 4h): 1990 ng/g | Mean drug concentration (plasma) ([4]; 4h): 27.9 ng/mL | Drug concentration ratio (liver/plasma) ([4]; 24h): 79.4 | Mean drug concentration (liver) ([4]; 24h): 327 ng/g | Mean drug concentration (plasma) ([4]; 24h): 4.12 ng/mL | AUC(0-t) at 24 h ([4]; AUC0-t (liver)): 58100 ng·h/mL | AUC(0-t) at 24 h ([4]; AUC0-t (plasma)): 510 ng·h/mL | maximum body weight loss (Hep3B-luc): 5.4% | TGI (Hep3B-luc; IG, QW × 3, p < 0.05): 61.6% | solubility improvement compared with N01(D18) [5]: about 10 fold | Cage-side observation (in vivo; 20 mg/kg, group 6, male animal No. 35, day 2): white secretions around the eyes | rectal temperature (in vivo; 2 h after treatment, significant difference vs vehicle group, returned to normal 4 h, 8 h and 24 h): decreased | Adverse reactions at maximum tolerated dose/probability (in vivo; [6]): White secretion around the eyes (1/6) | Weight loss at maximum tolerated dose: whether recovered (in vivo; [6]): Yes | Weight loss rate at maximum tolerated dose (in vivo; [6]): 14% | With or without mouse death (in vivo; [6]): No | body weight (in vivo; male and female animals, 10-40 mg/kg single administration, began to recover from day 3 to day 7): decreased after the single administration | MTD at 168 h (in vivo; mouse, in vivo, po): 40 mg/kg
